Tested on: KRas G12C mutant
Assay: Ras GTP binding domain inhibition assay (Cy3-GTP/Cy5-GTP competition)
Parameters: species or system human
Conditions: 20 μM; with SOS
How it was run: (§1)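 First, His-tagged protein is coated on nickel wells overnight at 4 °C. Next, compound (20 μM single point or serial dilution) is added for 3 h at room temperature, with or without Sos exchange factor in the last hour. Finally, 100 nM labelled GTP binds for 45 min and retained signal is measured.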

Compound | KRas G12C mutant + SOS: % inh.
COCCNc1nc(-c2nccn2C)nc2sc(-c3cc(OC)ccc3Cl)c(-c3ccc(OC)cc3)c12 [drawing 877] | C (51-75% inhibition)
COc1cccc(-c2csc3c(O)nc(-c4nccn4C)nc23)c1Cl [drawing 878] | A (1-25% inhibition)

Same assay, conditions: 20 μM; with SOS (Table 7A)

Compound | KRas G12C mutant + SOS: % inh.
COc1c(O)nc(-c2ccccn2)nc1Oc1ccc(C(=O)N(C)C)cc1 [drawing 879] | A (1-25% inhibition)
COc1c(O)nc(-c2ccccn2)nc1Nc1ccccc1 [drawing 880] | B (26-50% inhibition)
CCn1cc(Nc2nc(-c3ccccn3)nc(O)c2OC)cn1 [drawing 881] | B (26-50% inhibition)
CCOc1cccc(Nc2nc(-c3ccccn3)nc(O)c2OC)c1 [drawing 882] | C (51-75% inhibition)

Same assay, conditions: 20 μM; without SOS

Compound | KRas G12C mutant: % inh.
COCCNc1nc(-c2nccn2C)nc2sc(-c3cc(OC)ccc3Cl)c(-c3ccc(OC)cc3)c12 [drawing 877] | A (1-25% inhibition)
COc1cccc(-c2csc3c(O)nc(-c4nccn4C)nc23)c1Cl [drawing 878] | A (1-25% inhibition)

Same assay, conditions: 20 μM; without SOS (Table 7A)

Compound | KRas G12C mutant: % inh.
COc1c(O)nc(-c2ccccn2)nc1Oc1ccc(C(=O)N(C)C)cc1 [drawing 879] | B (26-50% inhibition)
COc1c(O)nc(-c2ccccn2)nc1Nc1ccccc1 [drawing 880] | C (51-75% inhibition)
CCn1cc(Nc2nc(-c3ccccn3)nc(O)c2OC)cn1 [drawing 881] | C (51-75% inhibition)
CCOc1cccc(Nc2nc(-c3ccccn3)nc(O)c2OC)c1 [drawing 882] | C (51-75% inhibition)

Tested on: KRas Q61H mutant
Assay: as above
Parameters: species or system human
Conditions: 20 μM; with SOS
How it was run: as §1

Compound | KRas Q61H mutant + SOS: % inh.
COCCNc1nc(-c2nccn2C)nc2sc(-c3cc(OC)ccc3Cl)c(-c3ccc(OC)cc3)c12 [drawing 877] | D (76-100% inhibition)
COc1cccc(-c2csc3c(O)nc(-c4nccn4C)nc23)c1Cl [drawing 878] | A (1-25% inhibition)

Same assay, conditions: 20 μM; with SOS (Table 7A)

Compound | KRas Q61H mutant + SOS: % inh.
COc1c(O)nc(-c2ccccn2)nc1Oc1ccc(C(=O)N(C)C)cc1 [drawing 879] | B (26-50% inhibition)
COc1c(O)nc(-c2ccccn2)nc1Nc1ccccc1 [drawing 880] | C (51-75% inhibition)
CCn1cc(Nc2nc(-c3ccccn3)nc(O)c2OC)cn1 [drawing 881] | B (26-50% inhibition)
CCOc1cccc(Nc2nc(-c3ccccn3)nc(O)c2OC)c1 [drawing 882] | C (51-75% inhibition)

Same assay, conditions: 20 μM; without SOS

Compound | KRas Q61H mutant: % inh.
COCCNc1nc(-c2nccn2C)nc2sc(-c3cc(OC)ccc3Cl)c(-c3ccc(OC)cc3)c12 [drawing 877] | A (1-25% inhibition)
COc1cccc(-c2csc3c(O)nc(-c4nccn4C)nc23)c1Cl [drawing 878] | A (1-25% inhibition)

Same assay, conditions: 20 μM; without SOS (Table 7A)

Compound | KRas Q61H mutant: % inh.
COc1c(O)nc(-c2ccccn2)nc1Oc1ccc(C(=O)N(C)C)cc1 [drawing 879] | B (26-50% inhibition)
COc1c(O)nc(-c2ccccn2)nc1Nc1ccccc1 [drawing 880] | C (51-75% inhibition)
CCn1cc(Nc2nc(-c3ccccn3)nc(O)c2OC)cn1 [drawing 881] | A (1-25% inhibition)
CCOc1cccc(Nc2nc(-c3ccccn3)nc(O)c2OC)c1 [drawing 882] | C (51-75% inhibition)

Tested on: KRas wild type
Assay: as above
Parameters: species or system human
Conditions: 20 μM; with SOS
How it was run: as §1

Compound | KRas wild type + SOS: % inh.
COCCNc1nc(-c2nccn2C)nc2sc(-c3cc(OC)ccc3Cl)c(-c3ccc(OC)cc3)c12 [drawing 877] | D (76-100% inhibition)
COc1cccc(-c2csc3c(O)nc(-c4nccn4C)nc23)c1Cl [drawing 878] | A (1-25% inhibition)

Same assay, conditions: 20 μM; with SOS (Table 7A)

Compound | KRas wild type + SOS: % inh.
COc1c(O)nc(-c2ccccn2)nc1Oc1ccc(C(=O)N(C)C)cc1 [drawing 879] | A (1-25% inhibition)
COc1c(O)nc(-c2ccccn2)nc1Nc1ccccc1 [drawing 880] | B (26-50% inhibition)
CCn1cc(Nc2nc(-c3ccccn3)nc(O)c2OC)cn1 [drawing 881] | B (26-50% inhibition)
CCOc1cccc(Nc2nc(-c3ccccn3)nc(O)c2OC)c1 [drawing 882] | B (26-50% inhibition)

Same assay, conditions: 20 μM; without SOS

Compound | KRas wild type: % inh.
COCCNc1nc(-c2nccn2C)nc2sc(-c3cc(OC)ccc3Cl)c(-c3ccc(OC)cc3)c12 [drawing 877] | A (1-25% inhibition)
COc1cccc(-c2csc3c(O)nc(-c4nccn4C)nc23)c1Cl [drawing 878] | A (1-25% inhibition)

Same assay, conditions: 20 μM; without SOS (Table 7A)

Compound | KRas wild type % inh.
COc1c(O)nc(-c2ccccn2)nc1Oc1ccc(C(=O)N(C)C)cc1 [drawing 879] | B (26-50% inhibition)
COc1c(O)nc(-c2ccccn2)nc1Nc1ccccc1 [drawing 880] | C (51-75% inhibition)
CCn1cc(Nc2nc(-c3ccccn3)nc(O)c2OC)cn1 [drawing 881] | C (51-75% inhibition)
CCOc1cccc(Nc2nc(-c3ccccn3)nc(O)c2OC)c1 [drawing 882] | C (51-75% inhibition)

Target: T1, KRas G12D mutant (Homo sapiens, UniProt P01116, G12D)
T1 construct: fused on or other part: His tag, used for capture on nickel-coated plates
Assay: as above
Conditions: 20 μM; with SOS (Table 7A); read-out: KRas G12D mutant + SOS: % inh.
How it was run: as §1

Compound | inhibition at 20 µM
COc1c(O)nc(-c2ccccn2)nc1Oc1ccc(C(=O)N(C)C)cc1 [drawing 879] | 26 to 50%
COc1c(O)nc(-c2ccccn2)nc1Nc1ccccc1 [drawing 880] | 26 to 50%
CCn1cc(Nc2nc(-c3ccccn3)nc(O)c2OC)cn1 [drawing 881] | 26 to 50%
CCOc1cccc(Nc2nc(-c3ccccn3)nc(O)c2OC)c1 [drawing 882] | 26 to 50%

Same assay, conditions: 20 μM; with SOS; read-out: KRas G-12D mutant + SOS: % inh.

Compound | inhibition at 20 µM
COCCNc1nc(-c2nccn2C)nc2sc(-c3cc(OC)ccc3Cl)c(-c3ccc(OC)cc3)c12 [drawing 877] | 26 to 50%
COc1cccc(-c2csc3c(O)nc(-c4nccn4C)nc23)c1Cl [drawing 878] | 1 to 25%

Same assay, conditions: 20 μM; without SOS (Table 7A); read-out: KRas G12D mutant: % inh.

Compound | inhibition at 20 µM
COc1c(O)nc(-c2ccccn2)nc1Oc1ccc(C(=O)N(C)C)cc1 [drawing 879] | 51 to 75%
COc1c(O)nc(-c2ccccn2)nc1Nc1ccccc1 [drawing 880] | 26 to 50%
CCn1cc(Nc2nc(-c3ccccn3)nc(O)c2OC)cn1 [drawing 881] | 26 to 50%
CCOc1cccc(Nc2nc(-c3ccccn3)nc(O)c2OC)c1 [drawing 882] | 51 to 75%

Same assay, conditions: 20 μM; without SOS; read-out: KRas G12D mutant: % inh.

Compound | inhibition at 20 µM
COCCNc1nc(-c2nccn2C)nc2sc(-c3cc(OC)ccc3Cl)c(-c3ccc(OC)cc3)c12 [drawing 877] | 1 to 25%
COc1cccc(-c2csc3c(O)nc(-c4nccn4C)nc23)c1Cl [drawing 878] | 1 to 25%

Reference: patent US20250296938A1, “Compounds that Interact with the Ras Superfamily for the Treatment of Cancers, Inflammatory Diseases, Rasopathies, and Fibrotic Disease” (SHY Therapeutics, LLC, priority 2018, published 2025)
